Source: patent US20250161238A1, “NMDAR Antagonists Prevent Ageing and Aging-Associated Conditions and Diseases Through Increasing 20S Proteasome Activity” (priority 2022, published 2025)

Columns and labels:
[1] = test system: p21-GFP fusion protein; test: p21-GFP fusion protein amount in cells; assay type: cell-based, human; details: Hep3B expressing p21-GFP
[2] = test system: C. elegans; test: C. elegans movements (non-moving, swimming); assay type: in vivo; details: 18th day
Method: Therefore, the movements of the C. elegans grown at 20° C. on standard nematode growth medium(NGM) plates shaked at constant speed at 200 rpm were recorded for 5 minutes on the 18th day. All C. elegans in plate well were individually followed and counted by three different eyes for 5 minutes. […] One of the basic movement of C. elegans in liquid is crawling while the other is swimming. Previously described that swimming is more energetically demanding for C. elegans than the crawling motion. In addition it was stated that having the ability to swim is related to locomotory fatigue, muscle mitochondrial oxidation, a transcriptional oxidative stress response, and changes in carbohydrate and fat metabolism. It was also known that the swimming ability of C. elegans is also related to pharyngeal, intestinal, neuronal functions and strong muscle into old age.
To sterilize the animals 300 μL of a 6 mM Fluorodeoxyuridine (FUDR) stock solution was added to 10 ml medium. During the monitoring of their life span, the worms were kept by shaking at a constant speed of 200 rpm. Locomotor activities of the worms were recorded and available.

[3] = cited from earlier work
[4] = test system: amyloid; test: Amyloid staining of mouse tissues; assay type: in vivo; details: mice at 22 months
Text: In the next study, the effects of NMDAR blocker on amyloid accumulation in brain, liver, and kidney of mice with the presence of memantine and control mice groups at 22 months were investigated by amyloid staining.
Whole frozen tissues were sectioned with a microtome and fixed in 4% paraformaldehyde, Tissues were washed in PBS and the individual staining methods used in accordance with the manufacturer's recommendations. Total pixels from fluorescence in the images were quantified using Adobe Photoshop software CS2 (Adobe Systems), and normalized to a nuclear stain.

[5] = test system: human mesenchymal stem cells; test: Lipid droplet amount in mesenchymal stem cells; assay type: cell-based; details: day 14
Text: Cell were harvested at day 14 for western blot and the protein expression amounts of the differentiation markers cd44, cd73, and cd90 were investigated. […] Another indicator of the stem cell differentiation is the determination of the amounts of lipid droplet in the cell. Fourteen-day cell passage is caused to increase lipid in the cell. It was observed that memantine treatment has prevented the amount of lipid droplet (FIG. 36D).

[6] = humans, 20 mg per day; cited from earlier work
[7] = biological target: T1, acid beta-glucosidase (GCase) (Mus musculus, UniProt P17439); details: in vivo; cited from earlier work
T1 construct: host or cells: mice (in vivo), US 2017/0273917 A1 and Klein et al. 2016
T1 sequence (P17439 20-515): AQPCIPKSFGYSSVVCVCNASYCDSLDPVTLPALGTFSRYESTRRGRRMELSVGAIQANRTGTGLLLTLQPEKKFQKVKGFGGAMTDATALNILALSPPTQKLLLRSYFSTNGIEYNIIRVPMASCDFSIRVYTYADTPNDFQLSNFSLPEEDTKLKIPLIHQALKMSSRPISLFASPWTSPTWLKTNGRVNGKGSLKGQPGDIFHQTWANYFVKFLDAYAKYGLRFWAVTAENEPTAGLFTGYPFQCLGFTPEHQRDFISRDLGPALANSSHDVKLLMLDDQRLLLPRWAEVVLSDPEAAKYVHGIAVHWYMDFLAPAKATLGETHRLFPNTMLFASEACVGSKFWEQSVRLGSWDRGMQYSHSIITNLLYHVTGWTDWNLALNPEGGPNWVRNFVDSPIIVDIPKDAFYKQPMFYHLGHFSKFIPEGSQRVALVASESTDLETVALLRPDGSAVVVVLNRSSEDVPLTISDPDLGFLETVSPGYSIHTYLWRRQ

SMILES: CNC1(c2ccccc2Cl)CCCCC1=O (centres unmarked) [ketamin, 2-(2-chlorophenyl)-2-(methylamino)-cyclohexanone]
- p21-GFP fusion protein / GFP amount [1]: decrease

SMILES: CC12CC3CC(C)(C1)CC(N)(C3)C2 [memantine, 3,5-dimethyladamantan-1-amine]
- number of C. elegans that can swim compared to without treatment [2]: 2,4 times
- free rat brain concentrations, lower in plasma [3]: 20-30%
- amount of amyloid in brain tissue [4]: most significant difference
- amount of amyloid in liver and kidney [4]: statistically significant decrease
- amount of lipid droplet [5]: prevented
- serum levels [6]: 500 to 1000 nM
- Gcase inhibition and level of Gcase substrates GlcCer and GSLs [7]: no effect
